In patent US11453652B2, “Di-macrocycles” (LUMIPHORE, INC., priority 2013, dated 2022):
{AmC3} = aminopropyl group

Assay: Gel electrophoresis mobility shift assay of metal cation complexation
Format: binding
Conditions: 20% polyacrylamide gel, 8M urea; incubated 55° C. 15 minutes, HEPES pH 7.5; compared with no metal cation
Experimental: For use in certain applications, such as acting as a bifunctional chelating agent to attach a radioisotope to a site-directing molecule, it is necessary that the chelator be able to coordinate to the metal ion of interest in a kinetically facile and thermodynamically stable manner. […] In this experiment, a conjugate of 12 with a small (18 base length) DNA oligomer, 15 was treated with a solution containing a metal cation. The electrophoretic mobility of the conjugate on a polyacrylamide gel was then compared with that of the conjugate which was not exposed to the solution of metal cation. […] The gel electrophoretic mobility of the DNA oligomer 14 that was not conjugated to 12, present in the solution of 15, was also compared with and without exposure to the metal cation solution.
C=control, no metal cations. Y, Eu, Tb, Zr, Th=yttrium(III), europium(III), terbium(III), zirconium(IV), and thorium(IV), respectively. Arrow indicates luminescent band observed under hand held ultraviolet lamp.
In particular, a solution of DNA oligomer (3 μL, 33 μM, all concentrations final) was mixed with a solution of metal cation (2 μL, 625 μM) or an equal volume of water, additional water (2.5 μL) and a buffer solution (2.5 μL, 50 mM HEPES, pH 7.5). […]

Substance | electrophoretic mobility following treatment with the metal cation solution
unmodified oligonucleotide: DNA 18-base oligonucleotide 5′-AAGGTCATCCATGACAAC-3′ with 5′-aminopropyl group, not conjugated to 12 (DNA, 5' {AmC3}, backbone and methylation of C not given here) | unaffected
Conjugate 15: conjugate of di-macrocycle 12 with 18-base DNA oligonucleotide 14 (DNA AAGGTCATCCATGACAAC; DNA, backbone and methylation of C not given here; di-macrocycle 12 conjugated) | migrates more slowly
